Reference: ChEMBL document CHEMBL1201862, “PubChem BioAssay data set” (2004)
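Assay format: 96-well plates, 48-hour exposure. GI50 = concentration required for 50% inhibition of growth.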 Active and inactive are the calls of the source. No stated cut-off is given here; in the data, active = GI50 up to about 1.1 µM and inactive = higher.

Experiments:
Assay in all cases: DTP human tumour cell line panel, 48 h
HT-29 = test system: HT-29
M14 = test system: M14
HCT-116 = test system: HCT-116
DU-145 = test system: DU-145
HL-60 = test system: HL-60
SN12C = test system: SN12C
SR = test system: SR
ACHN = test system: ACHN
OVCAR-8 = test system: OVCAR-8
RPMI-8226 = test system: RPMI-8226
UO-31 = test system: UO-31
HOP-62 = test system: HOP-62
NCI-H226 = test system: NCI-H226
SNB-75 = test system: SNB-75
NCI-H522 = test system: NCI-H522
Hs-578T = test system: Hs-578T
SK-MEL-5 = test system: SK-MEL-5
UACC-62 = test system: UACC-62
MCF7 = test system: MCF7
SK-OV-3 = test system: SK-OV-3

CCN(CC)/[N+]([O-])=N/OCOC
GI50 (HT-29): > 100 µM (inactive)
GI50 (M14): > 100 µM (inactive)
GI50 (HCT-116): > 100 µM (inactive)
GI50 (DU-145): > 100 µM (inactive)
GI50 (HL-60): > 100 µM (inactive)
GI50 (SN12C): > 100 µM (inactive)
GI50 (SR): > 100 µM (inactive)
GI50 (ACHN): > 100 µM (inactive)
GI50 (OVCAR-8): > 100 µM (inactive)
GI50 (RPMI-8226): > 100 µM (inactive)
GI50 (UO-31): > 100 µM (inactive)
GI50 (HOP-62): > 100 µM (inactive)
GI50 (NCI-H226): > 100 µM (inactive)
GI50 (SNB-75): > 100 µM (inactive)
GI50 (NCI-H522): > 100 µM (inactive)
GI50 (Hs-578T): > 100 µM (inactive)
GI50 (SK-MEL-5): > 100 µM (inactive)
GI50 (UACC-62): > 100 µM (inactive)
GI50 (MCF7): > 100 µM (inactive)
GI50 (SK-OV-3): > 100 µM (inactive)

O=C(CCSC(CC(=O)c1ccc(Cl)cc1)c1ccc(Cl)cc1)Nc1ccc(Cl)cc1 (stereo not given)
GI50 (HT-29): 9.23 µM (inactive)
GI50 (M14): 14.4 µM (inactive)
GI50 (HCT-116): 5.86 µM (inactive)
GI50 (DU-145): 14 µM (inactive)
GI50 (HL-60): 4.1 µM (inactive)
GI50 (SN12C): 12.4 µM (inactive)
GI50 (SR): 2.91 µM (inactive)
GI50 (ACHN): 14.4 µM (inactive)
GI50 (OVCAR-8): 14.9 µM (inactive)
GI50 (RPMI-8226): 2.19 µM (inactive)
GI50 (UO-31): 14 µM (inactive)
GI50 (HOP-62): 13.3 µM (inactive)
GI50 (NCI-H226): 20.3 µM (inactive)
GI50 (SNB-75): 21.8 µM (inactive)
GI50 (NCI-H522): 14.5 µM (inactive)
GI50 (Hs-578T): 26.3 µM (inactive)
GI50 (SK-MEL-5): 15.9 µM (inactive)
GI50 (UACC-62): 10.2 µM (inactive)
GI50 (MCF7): 3.72 µM (inactive)
GI50 (SK-OV-3): 20.7 µM (inactive)

CN(NC(=O)c1ccco1)C1=NCCCCN1
GI50 (HT-29): > 100 µM (inactive)
GI50 (M14): > 100 µM (inactive)
GI50 (HCT-116): > 100 µM (inactive)
GI50 (DU-145): > 100 µM (inactive)
GI50 (HL-60): > 100 µM (inactive)
GI50 (SN12C): > 100 µM (inactive)
GI50 (SR): > 100 µM (inactive)
GI50 (ACHN): > 100 µM (inactive)
GI50 (OVCAR-8): > 100 µM (inactive)
GI50 (RPMI-8226): > 100 µM (inactive)
GI50 (UO-31): > 100 µM (inactive)
GI50 (HOP-62): > 100 µM (inactive)
GI50 (NCI-H226): > 100 µM (inactive)
GI50 (SNB-75): > 100 µM (inactive)
GI50 (NCI-H522): > 100 µM (inactive)
GI50 (Hs-578T): > 100 µM (inactive)
GI50 (SK-MEL-5): > 100 µM (inactive)
GI50 (UACC-62): > 100 µM (inactive)
GI50 (MCF7): > 100 µM (inactive)
GI50 (SK-OV-3): > 100 µM (inactive)

CCCC(=O)OCC1OC(n2cc(F)c(=O)[nH]c2=O)CC1O (stereo not given)
GI50 (HT-29): 0.721 µM (active)
GI50 (M14): 0.314 µM (active)
GI50 (HCT-116): 0.614 µM (active)
GI50 (DU-145): 0.255 µM (active)
GI50 (HL-60): 0.614 µM (active)
GI50 (SN12C): 0.181 µM (active)
GI50 (SR): 0.0265 µM (active)
GI50 (ACHN): 0.0395 µM (active)
GI50 (OVCAR-8): 0.118 µM (active)
GI50 (RPMI-8226): 0.429 µM (active)
GI50 (UO-31): 0.094 µM (active)
GI50 (HOP-62): 0.0553 µM (active)
GI50 (NCI-H226): > 7.57 µM (inactive)
GI50 (SNB-75): 0.0871 µM (active)
GI50 (NCI-H522): 3.84 µM (inactive)
GI50 (Hs-578T): 3.85 µM (inactive)
GI50 (SK-MEL-5): 0.221 µM (active)
GI50 (UACC-62): 0.126 µM (active)
GI50 (MCF7): 0.00463 µM (active)
GI50 (SK-OV-3): > 4.14 µM (inactive)

O=[N+]([O-])c1c2nc3n(c2cc2c1nc1n2CCC1)CCC3
GI50 (HT-29): > 100 µM (inactive)
GI50 (M14): > 100 µM (inactive)
GI50 (HCT-116): > 100 µM (inactive)
GI50 (DU-145): > 100 µM (inactive)
GI50 (HL-60): > 100 µM (inactive)
GI50 (SN12C): > 100 µM (inactive)
GI50 (SR): > 100 µM (inactive)
GI50 (ACHN): > 100 µM (inactive)
GI50 (OVCAR-8): > 100 µM (inactive)
GI50 (RPMI-8226): > 100 µM (inactive)
GI50 (UO-31): > 100 µM (inactive)
GI50 (HOP-62): > 100 µM (inactive)
GI50 (NCI-H226): > 100 µM (inactive)
GI50 (SNB-75): > 100 µM (inactive)
GI50 (NCI-H522): > 100 µM (inactive)
GI50 (Hs-578T): > 100 µM (inactive)
GI50 (SK-MEL-5): > 100 µM (inactive)
GI50 (UACC-62): > 100 µM (inactive)
GI50 (MCF7): > 100 µM (inactive)
GI50 (SK-OV-3): > 100 µM (inactive)

COC(=O)c1c(OC(C)=O)ccc2c1c1c(n2C)C(=O)c2ccccc2C1=O
GI50 (HT-29): 46.8 µM (inactive)
GI50 (M14): 35.2 µM (inactive)
GI50 (HCT-116): 20.5 µM (inactive)
GI50 (DU-145): 14.6 µM (inactive)
GI50 (HL-60): 32.1 µM (inactive)
GI50 (SN12C): 39.6 µM (inactive)
GI50 (SR): 31.1 µM (inactive)
GI50 (ACHN): 15.6 µM (inactive)
GI50 (OVCAR-8): 25.8 µM (inactive)
GI50 (RPMI-8226): 8.15 µM (inactive)
GI50 (UO-31): 21 µM (inactive)
GI50 (HOP-62): 17.3 µM (inactive)
GI50 (NCI-H226): 38.9 µM (inactive)
GI50 (SNB-75): 7.93 µM (inactive)
GI50 (NCI-H522): 21.7 µM (inactive)
GI50 (Hs-578T): 8.38 µM (inactive)
GI50 (SK-MEL-5): 13.9 µM (inactive)
GI50 (UACC-62): 35.3 µM (inactive)
GI50 (MCF7): 18.7 µM (inactive)
GI50 (SK-OV-3): 12.9 µM (inactive)
